Test results reported in the NIST ThermoML archive (doi:10.1021/je800110r).
± gives the expanded uncertainty stated by the source.

Conditions: 293.15 K, Liquid, Vibrating tube method

CCCCCCCCCC [decane]
Conditions | mass density [kg/m3]
24834 kPa | 747.2 ± 2
24857 kPa | 747.4 ± 2
24883 kPa | 747.4 ± 2
24899 kPa | 747.3 ± 2
24926 kPa | 747.4 ± 2
24943 kPa | 747.5 ± 2
24972 kPa | 747.3 ± 2
24999 kPa | 747.4 ± 2
25019 kPa | 747.5 ± 2
25048 kPa | 747.5 ± 2
25068 kPa | 747.5 ± 2
25092 kPa | 747.5 ± 2
25116 kPa | 747.5 ± 2
25139 kPa | 747.5 ± 2
25163 kPa | 747.5 ± 2
25187 kPa | 747.6 ± 2
25218 kPa | 747.7 ± 2
25238 kPa | 747.6 ± 2
25269 kPa | 747.5 ± 2
25300 kPa | 747.7 ± 2
25320 kPa | 747.7 ± 2
25345 kPa | 747.6 ± 2
25370 kPa | 747.6 ± 2
25391 kPa | 747.7 ± 2
25419 kPa | 747.6 ± 2
25442 kPa | 747.7 ± 2.1
25468 kPa | 747.8 ± 2.1
25493 kPa | 747.7 ± 2.1
25512 kPa | 747.6 ± 2.1
25535 kPa | 747.8 ± 2.1
25557 kPa | 747.8 ± 2.1
25577 kPa | 747.8 ± 2.1
25599 kPa | 747.7 ± 2.1
25615 kPa | 747.7 ± 2.1
25638 kPa | 747.9 ± 2.1
25657 kPa | 747.8 ± 2.1
25680 kPa | 747.8 ± 2.1
25699 kPa | 747.8 ± 2.1
25720 kPa | 748 ± 2.1
25746 kPa | 747.9 ± 2.1
25766 kPa | 747.9 ± 2.1
25788 kPa | 747.9 ± 2.1
25808 kPa | 747.9 ± 2.1
25835 kPa | 748 ± 2.1
25861 kPa | 748 ± 2.1
25887 kPa | 748 ± 2.1
25907 kPa | 748.1 ± 2.1
25933 kPa | 747.9 ± 2.1
25959 kPa | 748 ± 2.1
25986 kPa | 748 ± 2.1
26006 kPa | 748.1 ± 2.1
26023 kPa | 748 ± 2.1
26040 kPa | 748.1 ± 2.1
26070 kPa | 748.1 ± 2.1
26093 kPa | 748.1 ± 2.1
26117 kPa | 748.1 ± 2.1
26145 kPa | 748.1 ± 2.1
26165 kPa | 748.2 ± 2.1
26192 kPa | 748.1 ± 2.1
26216 kPa | 748.1 ± 2.1
26243 kPa | 748.1 ± 2.1
26263 kPa | 748.4 ± 2.1
26291 kPa | 748.2 ± 2.1
26315 kPa | 748.2 ± 2.1
26335 kPa | 748.3 ± 2.1
26352 kPa | 748.3 ± 2.1
26370 kPa | 748.3 ± 2.1
26390 kPa | 748.4 ± 2.1
26408 kPa | 748.3 ± 2.1
26432 kPa | 748.3 ± 2.1
26453 kPa | 748.3 ± 2.1
26483 kPa | 748.4 ± 2.1
26516 kPa | 748.4 ± 2.1
26537 kPa | 748.4 ± 2.1
26568 kPa | 748.4 ± 2.1
26586 kPa | 748.5 ± 2.1
26607 kPa | 748.4 ± 2.1
26631 kPa | 748.5 ± 2.1
26652 kPa | 748.5 ± 2.1
26677 kPa | 748.4 ± 2.1
26694 kPa | 748.5 ± 2.1
26719 kPa | 748.4 ± 2.1
26741 kPa | 748.5 ± 2.1
26769 kPa | 748.5 ± 2.1
26795 kPa | 748.5 ± 2.1
26816 kPa | 748.5 ± 2.1
26841 kPa | 748.6 ± 2.1
26863 kPa | 748.5 ± 2.1
26885 kPa | 748.6 ± 2.1
26913 kPa | 748.7 ± 2.1
26935 kPa | 748.7 ± 2.1
26964 kPa | 748.7 ± 2.1
26989 kPa | 748.6 ± 2.1
27011 kPa | 748.7 ± 2.1
27036 kPa | 748.7 ± 2.1
27054 kPa | 748.6 ± 2.1
27077 kPa | 748.7 ± 2.1
27103 kPa | 748.7 ± 2.1
27128 kPa | 748.8 ± 2.1
27154 kPa | 748.7 ± 2.1
27173 kPa | 748.7 ± 2.1
27202 kPa | 748.8 ± 2.1
27232 kPa | 748.8 ± 2.1
27257 kPa | 748.8 ± 2.1
27280 kPa | 748.8 ± 2.1
27309 kPa | 748.8 ± 2.1
27328 kPa | 748.8 ± 2.1
27362 kPa | 749 ± 2.1
27385 kPa | 748.9 ± 2.1
27419 kPa | 748.9 ± 2.1
27438 kPa | 749 ± 2.1
27475 kPa | 749 ± 2.1
27501 kPa | 749 ± 2.1
27523 kPa | 749 ± 2.1
27557 kPa | 749.1 ± 2.1
27579 kPa | 749.1 ± 2.1
27609 kPa | 749.1 ± 2.1
27632 kPa | 749.1 ± 2.1
27667 kPa | 749.1 ± 2.1
27690 kPa | 749.2 ± 2.1
27713 kPa | 749.1 ± 2.1
27748 kPa | 749.3 ± 2.1
27770 kPa | 749.1 ± 2.1
27805 kPa | 749.2 ± 2.1
27827 kPa | 749.1 ± 2.1
27850 kPa | 749.2 ± 2.1
27877 kPa | 749.2 ± 2.1
27896 kPa | 749.1 ± 2.1
27924 kPa | 749.3 ± 2.1
27959 kPa | 749.2 ± 2.1
27983 kPa | 749.3 ± 2.1
28006 kPa | 749.4 ± 2.1
28033 kPa | 749.3 ± 2.1
28056 kPa | 749.4 ± 2.1
28076 kPa | 749.4 ± 2.1
28099 kPa | 749.3 ± 2.1
28123 kPa | 749.3 ± 2.1
